Results as given in US11510931B2, “Compositions and methods for treating ophthalmic conditions” (MEDICON PHARMACEUTICALS, INC., priority 2016, dated 2022).

Key:
[1] = system: chorioallantoic membrane (CAM); assay: Chorioallantoic membrane (CAM) neovascularization assay; type: in vivo, chicken; settings: day 4; for # of new vessels: Mean ± SEM
Protocol: Second, the effect of PS on new vessel formation (neovascularization) was evaluated using the chorioallantoic membrane (CAM) assay. In this assay, fertilized white chicken eggs (SPF Premium, Charles River Laboratory, North Franklin, Conn.) were incubated at 37° C. in 70% humidity for 3 days. The embryos were then incubated ex vivo in a sterile Petri dish for 7 days. Gelatin sponges adsorbed with or without VEGF plus PS or water (vehicle control) were implanted on the CAM surface and the neovasculature was counted on day 4 post implantation under a dissecting microscope.

IL-6 = IL-6 in culture medium of human conjunctival cells (ELISA); type: cell-based
Protocol: Cells were treated with PS 1×IC50 and 2 h later TNF-α was added to the medium to a final concentration of 10 ng/ml. Culture media were harvested 24 h later and the levels of TGF-β, IL-6 and IL-8 were determined by ELISA. Of note, the levels of IL-1β were below the limit of detection.

MMP-1 (collagenase I) = biological target: T1, MMP-1 (collagenase I) (Homo sapiens, UniProt P03956); assay: In vitro collagenase activity assay with purified MMP-1; type: biochemical; settings: purified MMP-1 (collagenase I)
T1 sequence (P03956 100-469): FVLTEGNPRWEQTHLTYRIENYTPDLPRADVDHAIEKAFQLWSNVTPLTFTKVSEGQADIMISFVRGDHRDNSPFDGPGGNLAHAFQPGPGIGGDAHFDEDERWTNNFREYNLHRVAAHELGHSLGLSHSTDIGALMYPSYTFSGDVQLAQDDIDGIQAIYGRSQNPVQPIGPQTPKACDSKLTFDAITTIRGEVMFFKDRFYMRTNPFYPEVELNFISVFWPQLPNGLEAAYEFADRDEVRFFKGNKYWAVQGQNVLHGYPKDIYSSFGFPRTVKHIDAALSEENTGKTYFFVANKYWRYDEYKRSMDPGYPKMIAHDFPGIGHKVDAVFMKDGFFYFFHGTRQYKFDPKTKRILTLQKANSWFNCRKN
Protocol: (§1) In an in vitro assay with purified MMP-1 (collagenase I) as […] it was shown that PS inhibited collagenase activity with an IC50 of <100 nM. In cultured human conjunctiva cells, PS suppressed MMP-1 by 75%-86%. In the lacrimal glands of rabbits with DED treated with PS eye drops, PS suppressed MMP-9 levels by 27% compared to vehicle treated rabbits (2.20±0.24 vs. 1.66±0.20 ng/mg protein; p<0.05; mean±SEM).

MMP-1 = MMP-1 levels in cultured human conjunctival cells (ELISA); type: cell-based; settings: for reduction of MMP-1 secreted into the culture medium: compared to controls; for levels of MMP-1 secreted into the culture medium: mean±SEM
Protocol: as §1
The Mechanism of Action of PS in Dry Eye. Tissue culture, animal and human studies have established inflammation as the core mechanism of DED^8. To determine the mechanism of action of PS in DED the response to PS of several factors known to play an important role in the inflammation associated with DED was explored. They include NF-κB; the cytokines TGF-β, IL-1 β, IL-6 and IL-8; the collagenases MMP-1 and MMP-9; and PGE2. In these studies we used human conjunctival epithelial cells, the Wong-Kilbourne derivative of Chang conjunctival cells (clone 1 to 5c-41 American Type Culture Collection (Manassas, Va.) certified cell line, 20.2).

VEGF-A = assay: Secreted VEGF in culture medium of human ovarian cancer cells (ELISA); type: cell-based; settings: PS 1.0×IC50, 24 h
Protocol: First, the effect of PS on VEGF production was evaluated by cultured human cancer ovarian cells, known to secrete VEGF to recruit vascular endothelial cells for angiogenesis. Therefore, VEGF is one of the most significant and direct targets in an anti-angiogenesis strategy. The experiments discovered that VEGF levels are reduced in ovarian cancer cells by PS. Secreted VEGF was assayed in the culture medium by ELISA.

[2] = system: cataract surgery plus LPS-induced ocular inflammation in rabbits; assay: Ocular inflammation after cataract surgery plus intravitreal LPS in rabbits; type: in vivo, rabbit; settings: PS 3.5% in nanoparticles
Protocol: The anti-inflammatory effect of PS in New Zealand white rabbits was evaluated following cataract surgery and administration of the proinflammatory bacterial lipopolysaccharide (LPS). Briefly, the lens was removed by phacoemulsification and aspiration and replaced with the hydrophobic acrylic intraocular lens (AR40e, AMO). Upon completion of the operation, 1 μg of LPS dissolved in 10 μl PBS was injected into the vitreous to induce uveitis.
Rabbits were treated with PS 3.5% formulated in nanoparticles or vehicle (nanoparticles without PS) applied topically as eye drops three times per day. The first application was made within 1 h after completion of surgery. The rabbits were examined daily and the aqueous humor (AH) was sampled by needle aspiration on days 1, 3, and 5 following the injection of LPS. The number of infiltrating cells in the AH was determined following standard methods. On day 5, the rabbits were euthanized and the implanted lens was removed and fixed in 2.5% glutaraldehyde and the number of inflammatory cells attached to the lens was examined under a dissecting microscope.

CCOP(=O)(OCC)OCCCCOC(=O)CC1=C(C)/C(=C/c2ccc([S+](C)[O-])cc2)c2ccc(F)cc21 (stereo not shown) [PS, phosphosulindac]
inhibition at 16 µM ([1]; Gallus gallus, 96 h, VEGF + PS 16 μM): 26% | inhibition at 50 µM ([1]; Gallus gallus, 96 h, VEGF + PS 50 μM): 34% | neovascularization % inhibition ([1]; PS 50 μM without VEGF): 29 (P < 0.016) % | # of new vessels ([1]; PS 50 μM without VEGF): 41 ± 3.2 | # of new vessels ([1]; VEGF + PS 16 μM): 46.4 ± 1.5 | # of new vessels ([1]; VEGF + PS 50 μM): 41.4 ± 1.0 | IL-6 reduction (IL-6; TNF-α-stimulated, PS 1×IC50, media at 24 h): 95% | IL-6 reduction (IL-6; unstimulated levels, PS 1×IC50): 84% | IC50 (MMP-1 (collagenase I)): < 100 nM | reduction of MMP-1 secreted into the culture medium (MMP-1; PS 1×IC50, 2 h): 48% | levels of MMP-1 secreted into the culture medium (MMP-1; PS 1×IC50, 2 h): 24.9±0.8 | reduction of MMP-1 secreted into the culture medium (MMP-1; PS 1.5×IC50, 2 h): 55% | levels of MMP-1 secreted into the culture medium (MMP-1; PS 1.5×IC50, 2 h): 21.6±0.8 | MMP-1 suppression (MMP-1; cultured human conjunctiva cells): 75%-86% | VEGF-A, % inhibition (VEGF-A; A2780): 64% | VEGF-A, % inhibition (VEGF-A; A2780ADR): 77% | VEGF-A, % inhibition (VEGF-A; A2780cis): 65% | VEGF-A, % inhibition (VEGF-A; OVCAR-3): 100% | VEGF-A, % inhibition (VEGF-A; SKOV-3): 96% | ocular inflammation (clinical appearance) ([2]; eye drops three times per day, first 24 h of treatment, FIG. 13): essentially eliminated | number of inflammatory cells in aqueous humor (AH) ([2]; day 3, eye drops three times per day, FIG. 14): < 70000 mL⁻¹ | inflammatory cells attached to the implanted lens ([2]; day 5): very few or no cells
